Laboratory results reported in article PMC5078989, “Targeted inhibition of the COP9 signalosome for treatment of cancer” (Nature Communications, 2016).

Columns and labels:
RPN11 (26S proteasome) = target: T1, RPN11 (26S proteasome) (Homo sapiens, UniProt O00487); assay: Selectivity assay RPN11 (26S proteasome); format: biochemical; conditions: JAMM domain protease
T1 construct: purchased LifeSensors PS026
Procedure: All biochemical assays were performed at room temperature in 384-well plates in a total volume of 25.25 μl per well. Test compounds were dissolved in 90% (v/v) DMSO/water. For the assays, 250 nl of compound solution was added per well, followed by addition of 12.5 μl protease solution. After 70 min of pre-incubation at room temperature, the reactions were started by addition of 12.5 μl substrate solution and followed either by measuring fluorescence intensity (rhodamine 110-based substrates) or by fluorescence lifetime (PT14-based substrates). The effect of compound on enzymatic activity was obtained from the linear part of the progress curves and determined after 1 h (t=60 min). The final compound concentrations ranged from 100 μM to 1 nM.
RPN11 (26S proteasome). Enzyme purchased from LifeSensors (catalogue number PS026); substrate: K48-linked tetra-ubiquitin chain coupled to a rhodamine 110 fluorophore purchased from LifeSensors (catalogue number NO13–158.01); enzyme concentration: 0.75 nM; substrate concentration: 100 nM; assay buffer: 20 mM Hepes at pH 7.4, 150 mM NaCl, 0.02% Tween-20, 0.5 mM TCEP, 0.05 mM MgCl2, 1 mM ATP and 2 μM ubiquitin aldehyde.

SU-DHL-1 xenografts = assay: SU-DHL-1 xenograft experiment in SCID-bg mice; format: in vivo; conditions: 14 days; for T/C value (tumour volume of treated versus control): last day of treatment
Procedure: For the in vivo study, subcutaneous SU-DHL-1 xenografts were grown in SCID-bg mice and CSN5i-3 was administered orally at doses of 50 mg kg^−1 BID and 100 mg kg^−1 QD over a period of 14 days. […] Tumours were excised at the end of the study and the effect of compound treatment assessed on the pharmacodynamics markers, neddylated Cul1 and Skp2. […] All animal experiments were approved by the Kantonales Veterinäramt Basel-Stadt and were conducted in accordance with the Eidgenössisches Tierschutzgesetz and the Eidgenössische Tierschutzverordnung. SU-DHL-1 cells (1 × 10^7; DSMZ) were implanted subcutaneously into SCID-bg female 7–9-week-old mice (Taconic) and developing tumours were propagated once before subcutaneous transplantation for efficacy studies. Treatment was initiated when tumours reached 150–200 mm^3 volume. […] Randomization was conducted by using an internal computer software (Indigo). CSN5i-3 was formulated in 100 mM citrate buffer pH 3, PEG300, Kolliphor HS15, 1 N HCl (56:30:10:4%w/w). Tumour response is reported as percentage change in tumour volume at the last day of treatment relative to start of treatment. […] At day 10 of treatment blood, samples were taken and concentrations of CSN5i-3 were determined at indicated time points post dose using ultra-high-pressure liquid chromatography/tandem MS. At the end of treatment, tumours were excised and snap frozen in liquid nitrogen. Frozen tumours were pulverized using CryoPrep (Covaris Inc.) and protein lysates were prepared from tumour powder for immunoblot analysis.

THP-1 cells = assay: Cell viability assay (CellTiter-Glo), THP-1; format: cell-based, human; conditions: THP-1, 72 h; cytotoxic
Procedure: Cells were maintained in a humidified incubator at 37 °C and 5% CO2. […] All cells were negatively tested for mycoplasma contamination either by the vendor or in house. […] If not stated otherwise, cells were harvested after incubation for 16 h and subjected to SDS-PAGE and western blotting. The RNA interference experiment was performed with CSN5 stealth siRNA (#HSS116986) and stealth negative control siRNA (#12935-400) (Invitrogen), which were transfected at 10 nM into HCT116 cells using […] (Qiagen) according to the manufacturer's protocols. Seventy-two hours after transfection, cells were harvested and subjected to SDS-PAGE and western blotting (see Supplementary Fig. 7 for all western blottings performed). A standardized CellTiter-Glo Assay (Promega #G7570) based on the quantification of ATP was applied according to the manufacturer's protocol to measure the amount of viable cells in culture. In brief, cells were seeded into 384-well plates at optimal density for each cell line. After 4 h, compounds were added at different concentrations in growth medium and incubated for another 72 h in a humidifying chamber at 37 °C and 5% CO2. Eventually, equal amounts of CellTiter-Glo reagent were added directly to the cells, incubated for 15 min and luminescence was recorded using PHERAstar plate reader (BMG LABTECH GmbH).

[1] = 50 mg kg^−1 BID and 100 mg kg^−1 QD oral

CC(C)n1nc(C(F)F)cc1C(=O)Nc1ccc([C@H]2[C@@H](O)CCCc3cncn32)c(-c2ccccc2)c1 [CSN5i-3, 3-(Difluoromethyl)-N-(6-((5S,6S)-6-hydroxy-6,7,8,9-tetrahydro-5H-imidazo[1,5-a]azepin-5-yl)-[1,1′-biphenyl]-3-yl)-1-isopropyl-1H-pyrazole-5-carboxamide]
IC50 (RPN11 (26S proteasome)): 53 ± 26 µM | tolerability based on body weight (SU-DHL-1 xenografts; [1]): well tolerated | tumour growth outcome (SU-DHL-1 xenografts; [1]): Tumour stasis | T/C value (tumour volume of treated versus control) (SU-DHL-1 xenografts; 50 mg kg^−1 BID oral): 22% | T/C value (tumour volume of treated versus control) (SU-DHL-1 xenografts; 100 mg kg^−1 QD oral): 25% | AMAX (THP-1 cells): ≤ −95%
